One compound from the NIST ThermoML archive (doi:10.1016/j.fluid.2011.03.012) can be followed below.

± gives the expanded uncertainty stated by the source.

For data set [1] the following is noted: Crystal; DTA.
The nature of data set [2]: Molar enthalpy of transition or fusion. Conditions: Crystal; DSC.

As to `Cc1cnc(NC(=O)C2=C(O)c3ccccc3S(=O)(=O)N2C)s1` [meloxicam], the Normal melting temperature in data set [1] was found to be 263.6 ± 1.4 °C. The “Molar enthalpy of transition or fusion” value in data set [2] is 10.5 ± 0.287 kcal/mol.
